BindingDB's records for doi:10.1021/bi1011157 (Albert Einstein College of Medicine, 2010)
pKi: −log10 of the molar value.

Target: T1, Pyrazinamidase/nicotinamidase PncA (Mycobacterium tuberculosis, UniProt Q50575)
T1 sequence (Q50575 whole entry): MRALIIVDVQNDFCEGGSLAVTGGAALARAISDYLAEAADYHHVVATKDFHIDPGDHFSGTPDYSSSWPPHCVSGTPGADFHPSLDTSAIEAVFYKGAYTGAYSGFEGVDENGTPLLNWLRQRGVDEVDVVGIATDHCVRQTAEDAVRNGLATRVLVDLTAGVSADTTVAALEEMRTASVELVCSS
Assay: Enzyme Assay
Protocol: Enzyme activity measurement by a coupled assay. initial velocities for the reaction of MtPncA were determined by monitoring the loss of absorbance at 340 nm associated with oxidation of NADH to NAD by L-glutamic dehydrogenase (GDH) to produce glutamate from alpha-ketoglutarate.

O=Cc1cnccn1 [PncA Inhibitor, 1]
pKi: 5.82

O=Cc1cccnc1 [PncA Inhibitor, 2]
pKi: 6.52

O=C(c1cccnc1)C(F)(F)F [PncA Inhibitor, 3]
pKi: 3.38

OCc1cccnc1 [PncA Inhibitor, 4]
pKi: 4.20

N#Cc1cccnc1 [PncA Inhibitor, 5]
pKi: 3.85

N#Cc1cnccn1 [PncA Inhibitor, 6]
pKi: 4.21
